Assay results taken from the supplement of paper PMC10307832.

Experiments:
Experiment in all cases: relative viability (nuclei count vs DMSO), 5 days (fraction); higher = more cells survive
Venetoclax + Dasatinib = compound: CC1(C)CCC(CN2CCN(c3ccc(C(=O)NS(=O)(=O)c4ccc(NCC5CCOCC5)c([N+](=O)[O-])c4)c(Oc4cnc5[nH]ccc5c4)c3)CC2)=C(c2ccc(Cl)cc2)C1 [Venetoclax] + Cc1nc(Nc2ncc(C(=O)Nc3c(C)cccc3Cl)s2)cc(N2CCN(CCO)CC2)n1 [Dasatinib] (partner 0.075 µM)
Summary of the method: (§1)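 The day after seeding in 1536-well plates, lung cancer cell lines were treated by pin tool with a single drug, or with a fixed anchor-drug dose together with five library-drug doses (not always all listed) in √10 steps. After 5 days, a combined fix-and-stain solution (final 0.05% Triton X-100, 1% formaldehyde, 1 ug/ml Hoechst) was added. Nuclei counted on 4× images gave relative viability as treated counts over vehicle counts, reported as the median of duplicate plates.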

Selumetinib + Trametinib = compound: Cn1cnc2c(F)c(Nc3ccc(Br)cc3Cl)c(C(=O)NOCCO)cc21 [Selumetinib] + CC(=O)Nc1cccc(-n2c(=O)n(C3CC3)c(=O)c3c(Nc4ccc(I)cc4F)n(C)c(=O)c(C)c32)c1 [Trametinib] (partner 0.02 µM)
Summary of the method: as §1

Selumetinib + Foretinib = compound: Cn1cnc2c(F)c(Nc3ccc(Br)cc3Cl)c(C(=O)NOCCO)cc21 [Selumetinib] + COc1cc2c(Oc3ccc(NC(=O)C4(C(=O)Nc5ccc(F)cc5)CC4)cc3F)ccnc2cc1OCCCN1CCOCC1 [Foretinib] (partner 0.25 µM)
Summary of the method: as §1

Selumetinib + Pictilisib = compound: Cn1cnc2c(F)c(Nc3ccc(Br)cc3Cl)c(C(=O)NOCCO)cc21 [Selumetinib] + CS(=O)(=O)N1CCN(Cc2cc3nc(-c4cccc5[nH]ncc45)nc(N4CCOCC4)c3s2)CC1 [Pictilisib] (partner 1 µM)
Summary of the method: as §1

Cell Line	relative viability (Venetoclax + Dasatinib; first compound 0.01 µM)	relative viability (Venetoclax + Dasatinib; first compound 0.03162 µM)	relative viability (Venetoclax + Dasatinib; first compound 0.1 µM)	relative viability (Venetoclax + Dasatinib; first compound 0.3162 µM)	relative viability (Venetoclax + Dasatinib; first compound 1 µM)	relative viability (Selumetinib + Trametinib; first compound 0.02 µM)	relative viability (Selumetinib + Trametinib; first compound 0.06325 µM)	relative viability (Selumetinib + Trametinib; first compound 0.2 µM)	relative viability (Selumetinib + Trametinib; first compound 0.6325 µM)	relative viability (Selumetinib + Foretinib; first compound 0.02 µM)	relative viability (Selumetinib + Foretinib; first compound 0.06325 µM)	relative viability (Selumetinib + Foretinib; first compound 0.2 µM)	relative viability (Selumetinib + Foretinib; first compound 0.6325 µM)	relative viability (Selumetinib + Pictilisib; first compound 0.02 µM)	relative viability (Selumetinib + Pictilisib; first compound 0.06325 µM)	relative viability (Selumetinib + Pictilisib; first compound 0.2 µM)	relative viability (Selumetinib + Pictilisib; first compound 0.6325 µM)
NCI-H2009	0.37	0.315	0.283	0.302	0.266	0.285	0.273	0.29	0.257	0.965	0.87	0.511	0.337	0.614	0.355	0.266	0.221
NCI-H2023	0.697	0.53	0.653	0.512	0.46	0.51	0.467	0.535	0.51	0.709	0.811	0.6	0.572	0.211	0.186	0.198	0.223
SW 1573	0.431	0.445	0.517	0.599	0.452	0.599	0.56	0.522	0.545	0.909	0.776	0.638	0.598	0.366	0.427	0.342	0.386
NCI-H2405	0.179	0.199	0.186	0.197	0.197	0.643	0.638	0.669	0.615	1.05	0.983	0.909	0.545	0.382	0.303	0.269	0.26
EMC-BAC-2	0.331	0.343	0.292	0.327	0.31	0.909	0.833	0.937	0.774	0.882	0.972	0.85	0.875	0.556	0.53	0.523	0.492
NCI-H322M	0.291	0.239	0.237	0.246	0.24	0.458	0.508	0.496	0.512	0.853	0.782	0.704	0.757	0.428	0.415	0.446	0.373
NCI-H358	0.309	0.17	0.15	0.158	0.161	0.125	0.134	0.121	0.11	0.43	0.331	0.272	0.291	0.316	0.302	0.314	0.277
NCI-H1944	0.283	0.235	0.201	0.222	0.227	0.442	0.398	0.406	0.389	0.898	0.796	0.69	0.536	0.338	0.337	0.275	0.319
H3255	0.367	0.399	0.373	0.446	0.404	0.586	0.583	0.601	0.54	0.867	0.921	0.457	0.739	0.434	0.462	0.38	0.36
NCI-H1993	0.641	0.546	0.493	0.541	0.537	0.624	0.604	0.527	0.528	0.663	0.744	0.745	0.671	0.945	0.815	0.866	0.807
NCI-H650	0.488	0.539	0.453	0.484	0.432	0.963	1.03	0.979	0.866	1.07	1.18	1.21	1.17	1	0.912	0.887	0.993
NCI-H460	0.597	0.532	0.401	0.527	0.478	0.115	0.139	0.138	0.104	0.949	0.899	0.886	0.404	0.272	0.249	0.207	0.209
NCI-H1437	0.508	0.494	0.274	0.44	0.478	0.558	0.546	0.516	0.528	1.33	1.3	1.17	0.708	0.237	0.178	0.157	0.149
NCI-H2347	0.328	0.318	0.322	0.309	0.268	0.264	0.294	0.287	0.278	0.93	0.704	0.451	0.421	0.641	0.314	0.239	0.258
LC-2-ad	0.575	0.612	0.522	0.671	0.544	0.954	0.88	0.822	0.9	0.828	0.722	0.643	0.533	0.482	0.426	0.432	0.437
NCI-H661	0.809	1.04	0.871	0.995	0.888	0.585	0.575	0.567	0.537	1.12	0.979	1.02	0.913	0.496	0.39	0.347	0.577
SK-MES-1	0.4	0.383	0.329	0.408	0.376	0.561	0.579	0.476	0.461	0.831	0.818	0.534	0.491	0.324	0.266	0.196	0.233
NCI-H2170	0.569	0.508	0.373	0.556	0.502	0.934	0.957	0.853	0.921	0.987	0.954	0.967	0.952	0.27	0.306	0.276	0.249
NCI-H2126	0.568	0.572	0.612	0.607	0.546	0.569	0.574	0.6	0.622	1.13	0.993	1.05	0.933	0.477	0.434	0.408	0.416

Cell Line	relative viability (Venetoclax + Dasatinib; first compound 0.01 µM)	relative viability (Venetoclax + Dasatinib; first compound 0.03162 µM)	relative viability (Venetoclax + Dasatinib; first compound 0.1 µM)	relative viability (Venetoclax + Dasatinib; first compound 0.3162 µM)	relative viability (Venetoclax + Dasatinib; first compound 1 µM)	relative viability (Selumetinib + Trametinib; first compound 0.02 µM)	relative viability (Selumetinib + Trametinib; first compound 0.06325 µM)	relative viability (Selumetinib + Trametinib; first compound 0.2 µM)	relative viability (Selumetinib + Trametinib; first compound 0.6325 µM)	relative viability (Selumetinib + Foretinib; first compound 0.02 µM)	relative viability (Selumetinib + Foretinib; first compound 0.06325 µM)	relative viability (Selumetinib + Foretinib; first compound 0.2 µM)	relative viability (Selumetinib + Foretinib; first compound 0.6325 µM)	relative viability (Selumetinib + Pictilisib; first compound 0.02 µM)	relative viability (Selumetinib + Pictilisib; first compound 0.06325 µM)	relative viability (Selumetinib + Pictilisib; first compound 0.2 µM)	relative viability (Selumetinib + Pictilisib; first compound 0.6325 µM)
EPLC-272H	0.399	0.379	0.352	0.36	0.346	0.275	0.277	0.263	0.259	0.593	0.467	0.367	0.333	0.299	0.253	0.245	0.208
PC-14	0.337	0.272	0.284	0.259	0.253	0.847	0.74	0.732	0.604	0.97	0.886	0.819	0.881	0.723	0.551	0.548	0.519
NCI-H520	0.218	0.193	0.158	0.178	0.195	0.826	0.677	0.749	0.776	0.746	0.759	1.02	0.758	0.293	0.24	0.31	0.292
LXF-289	0.137	0.262	0.242	0.253	0.166	0.717	0.616	0.673	0.701	0.939	0.867	0.738	0.737	0.735	0.615	0.537	0.552
NCI-H441	0.685	0.667	0.482	0.546	0.596	0.457	0.429	0.573	0.455	0.964	0.839	0.903	0.667	0.472	0.363	0.306	0.292
NCI-H596	0.707	0.549	0.587	0.572	0.615	0.743	0.881	0.741	0.607	0.832	0.781	0.696	0.653	0.372	0.333	0.31	0.296
NCI-H727	0.421	0.357	0.35	0.415	0.447	0.348	0.367	0.421	0.381	0.468	0.434	0.329	0.352	0.309	0.214	0.155	0.234
NCI-H838	0.367	0.288	0.303	0.312	0.279	0.482	0.52	0.529	0.524	0.907	0.915	0.859	0.796	0.458	0.314	0.321	0.339
NCI-H1793	0.448	0.355	0.291	0.358	0.27	0.424	0.414	0.443	0.436	0.69	0.511	0.386	0.415	0.288	0.286	0.314	0.28
NCI-H1355	0.697	0.731	0.623	0.723	0.602	0.407	0.459	0.464	0.416	0.954	0.847	0.539	0.625	0.369	0.409	0.315	0.296
HARA	0.422	0.258	0.228	0.249	0.216	0.531	0.596	0.787	0.448	0.905	0.726	0.71	0.592	0.285	0.391	0.31	0.15
201T	0.545	0.551	0.614	0.501	0.488	0.777	0.698	0.723	0.735	0.977	0.978	1.05	0.874	0.641	0.693	0.625	0.677
NCI-H23	0.664	0.781	0.636	0.706	0.628	0.4	0.402	0.322	0.331	0.952	0.916	0.654	0.612	0.484	0.344	0.352	0.29
CAL-12T	0.286	0.476	0.381	0.398	0.314	0.282	0.343	0.285	0.298	1.05	1.04	1.14	0.839	0.415	0.394	0.408	0.395
NCI-H647	0.16	0.218	0.162	0.238	0.228	0.478	0.391	0.405	0.484	1.19	1.21	0.842	1.02	0.422	0.384	0.173	0.318
NCI-H1915	0.303	0.301	0.311	0.297	0.32	0.311	0.302	0.288	0.257	1.16	1.03	0.812	0.529	0.889	0.716	0.454	0.448
NCI-H2087	0.848	0.839	0.997	0.936	0.76	0.19	0.171	0.231	0.204	0.982	0.718	0.507	0.304	0.552	0.405	0.329	0.267
NCI-H2085	0.273	0.238	0.282	0.243	0.22	0.545	0.62	0.398	0.513	0.728	0.829	0.536	0.567	0.449	0.374	0.356	0.365
